Data taken from article PMC9513234, “Synthesis and Biological Evaluation of Termini-Modified and Cyclic Variants of the Connexin43 Inhibitor Peptide5” (Frontiers in Chemistry, 2022).
Entries after “also recorded” stand apart in the source; their conditions may differ. Where a SMILES comes first, the peptide text is derived from it. Bridges are numbered along the chain shown (N, C = ends). [ ]: non-standard residue; d: D form. The star is where a group is joined. AllylGly = C=CC[C@H](N)C(=O)O; Ethoxycarbonyl = CCOC(=O)*; Butyryl = CCCC(=O)*; Bz = O=C(c1ccccc1)*; N3 = azide

Tests used:
[1] = test system: gap junctions in hCMVEC cells; conditions: 100 µM; for LY dye spread (number of LY-positive cells) as percentage of untreated control: mean ± SEM
Method: We next investigated the ability of peptide5 variants to inhibit gap junctional communication using a scrape loading assay. In this assay, the cells in culture are loaded with a dye (Lucifer Yellow dilithium salt (LY), M.W. 457.25 Da) of molecular size (<1 kDa) that is able to transit through the gap junctions and the degree of dye spread is then measured by counting the number of cells that contain LY (Supplementary Material, Method 4) ^1. Consistent with our previous study, peptide5 (1) and Cbx reduced the degree of dye spread following incubation with LY (56.16 ± 2.1%; p < 0.0001 and 16.2 ± 1.1%; p < 0.0001, respectively) compared to the untreated controls (Figure 12).
(§1) Human cerebral microvascular endothelial cells (hCMVEC) were purchased from Applied Biological Materials (ABM) Inc, Canada (cat # T0259) (O'Carroll et al., 2015). Cells were cultured in 1 μg/cm^2 collagen I (Gibco) coated T75 flasks from Corning (NY, USA). The growth media was M199 media (Gibco), supplemented with 10% FBS, 1 μg/mL hydrocortisone (Sigma), 3 μg/mL human FGF (Peprotech), 10 μg/mL human EGF (Peprotech), 10 μg/mL heparin (Sigma), 2 mM Glutamax (Gibco), and 80 μM butyryl cAMP (Sigma).
For experiments hCMVECs cells were plated M199 media at a density of 4 x 10^5 cells per well in a collagen coated (1 µg/cm^2) 12-well plate the day prior to the experiment to ensure a confluent monolayer of hCMVECs. On the day of the experiment cells were pre-incubated in carbenoxolone, (100 µM) Peptide5 (5–100 µM) or modified analogues (100 µM) or M199 as a negative control. Cells were washed three times with phosphate buffered saline (PBS) without Ca^2+ or Mg^2+ and incubated in 0.05% Lucifer Yellow (LY) (Sigma), a fluorescent dye that is transferred through coupled gap junction channels (el-Fouly, Trosko, & Chang, 1987), and scrape-wounded with a size 10 carbon steel surgical blade (Swann-Morton, England). Following a 5 minute incubation at 37 °C in 95% O2 and 5% CO2 without light, the 0.05% LY solution was removed. Cells were rinsed four times with HBSS containing Ca^2+ ^+, and then fixed in 4% paraformaldehyde (PFA) in PBS at pH 7.4 for 10 minutes at room temperature. Cells were then washed 3 times in PBS to remove PFA before fluorescent imaging. Fluorescent images were visualized using a Nikon TE2000E inverted fluorescent microscope (10x magnification, 0.3 numerical aperture), and captured using a Digital Sight CCD camera and Eclipse Net software (Nikon). Three images within each well from three independent experiments were taken for analysis, and the total number of cells showing dye uptake from those that had been loaded were counted manually by masked observers. Each peptide was tested in at least an n of 2 separate experiments.

Cx43 hemichannel = molecular target: T1, Cx43 hemichannel (Homo sapiens, UniProt P17302); experiment: HAIR ischemic injury-induced ATP release (hemichannel) assay, bioluminescence; assay type: cell-based; conditions: hCMVEC cells, 2 h in HAIR solution, 100 µM; for ATP release compared to HAIR control (result in words) / ATP release compared to peptide5 (result in words): one-way ANOVA, Dunnett; for ATP release over untreated HAIR controls: mean ± SEM
T1 construct: ischemic injury–induced ATP release from hCMVEC cells in vitro; host or cells: hCMVEC (human cerebral microvascular endothelial cells)
T1 sequence (P17302 whole entry): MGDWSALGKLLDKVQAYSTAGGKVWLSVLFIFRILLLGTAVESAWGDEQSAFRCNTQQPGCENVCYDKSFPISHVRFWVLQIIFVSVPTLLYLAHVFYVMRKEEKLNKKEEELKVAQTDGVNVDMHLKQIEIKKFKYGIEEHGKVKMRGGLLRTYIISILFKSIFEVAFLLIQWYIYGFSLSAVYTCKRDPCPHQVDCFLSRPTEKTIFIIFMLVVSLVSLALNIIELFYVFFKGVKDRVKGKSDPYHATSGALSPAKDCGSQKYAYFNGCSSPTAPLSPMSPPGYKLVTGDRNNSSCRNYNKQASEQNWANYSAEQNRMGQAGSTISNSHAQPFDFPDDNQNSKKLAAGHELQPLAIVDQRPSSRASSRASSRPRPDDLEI
Method: To test the effect of the peptide modifications on peptide5 (1) activity against hemichannels, a model of ischemic insult on a cell culture model of the brain microvasculature was used to induce Cx43 hemichannel opening and ATP release (Supplementary Material, Method 4). The cells were incubated in hypoxic-acidic ion-shifted ringers (HAIR) solution to generate disrupted pH and ion balance leading to ATP leak from the cells, which can be sampled and quantified luminometrically using a commercially available firefly luciferase assay (Molecular Probes).
as §1
For experiments hCMVECs were plated in M199 media at a density of 2.5 x 10^4 cells per well in a collagen-coated (1 µg/cm^2) 12-well plate the day prior to the experiment. Hypoxic, acidic, ion-shifted Ringer (HAIR) injury solution that mimics ionic concentrations and acid-base shifts of the interstitial space in hypoxic-ischemic brains (Bondarenko & Chesler, 2001) was used to trigger hemichannel opening as described previously (Kim et al., 2017). HAIR solution (38 mM NaCl, 13 mM NaHCO3, 3 mM Na-gluconate, 65 mM K-gluconate, 38 mM NMDG-Cl, 1 mM NaH2PO4, and 1.5 mM MgCl2) was bubbled in 95% N2, 5% CO2 gas (20 L/min) for 5 minutes and pH adjusted to 6.6 before use. To induce ischemic, cells were incubated for 2 hours in 500 µL HAIR solution +/- carbenoxolone (100 µM), Peptide5 or modified analogues (100 µM). For the negative control, hCMVEC cells were incubated for 2 hours in 500 µL standard Ringer solution 124 mM NaCl, 3 mM KCl, 26 mM NaHCO3, […], 1 mM NaH2PO4, 1.3 mM CaCl2, 1.5 MgCl2, and 10 mM glucose) adjusted to pH 7.4 before use. All incubations were carried out at 37 °C in 95% O2 and 5% CO2. At the end of each experiment, samples were removed and immediately placed on ice. The concentration of ATP in the samples was determined using a luciferin/luciferase bioluminescence reaction (ATP Determination Kit, Molecular Probes) and detected using a luminescence plate reader (FLUOStar OPTIMA FL, BMG Labtech). Standard curves were generated for each experiment from an ATP standard (0 to 500 nM) and used to convert bioluminescence units to ATP concentration. […] Only readings in the plateau phase of the reaction were included in averaging for the well value. Each peptide was tested in at least an n of 2 separate experiments.

[2] = Human serum stability assay (RP-HPLC); conditions: for stability in human serum (result in words): 25% aq. human serum, 37°C, 48 h
Method: We then evaluated the N-methylated variants 7 and 8, D amino acid variants 9 and 10, and the two carbo cyclic peptides 39 and 42. Each peptide was incubated with 25% aq. human serum at 37°C, and 6 aliquots were extracted within 48 h. The stability of each peptide upon exposure to human serum was then analyzed via analytical RP HPLC, and the amount of peptide still present at each time point was recorded relative to t = 0 h.
Whole blood was collected from a healthy volunteer and stored in a covered test tube and was allowed to clot by leaving it undisturbed at r.t. for ca. 1 h. The clot was removed by centrifugation at 1,000-2,000 x g for 10 min and the resulting supernatant was designated as the serum. The serum was collected and stored in 0.5 mL aliquots, whereby the samples were stored at - 20 °C.
200 µM concentration of peptide was incubated in 25% aq. human serum (1.7 mL) and left to shake at 37 °C. Aliquots of human serum-peptide mixture (270 µL) were taken at given times (0 h, 1 h, 4 h, 8 h, 24 h, and 48 h) and threefold excess of acetonitrile (810 µL) was added to the aliquot and left for 1 h at 0 °C. The samples underwent centrifugation (14,500 rpm) for 30 min at r.t. and the supernatant was subsequently collected. Upon evaporation of the solvents, the resulting dry, pale-yellow residue was dissolved in water containing 0.1 % TFA.
The dissolved solution was analysed via analytical RP HPLC and the quantity of the peptide was expressed as a percentage relative to the peptide peak area obtained at time zero (i.e. 100% peptide amount at t = 0 h). A scatterplot graph representing percentage of peptide versus time was generated.

Row | Compound | LY dye spread compared to peptide5 (result in words) [1] | ATP release compared to HAIR control (result in words) (Cx43 hemichannel) | ATP release compared to peptide5 (result in words) (Cx43 hemichannel) | other results
1 | CC1(C)[C@@H](OC(=O)CCC(=O)O)CC[C@]2(C)[C@H]3C(=O)C=C4[C@@H]5C[C@@](C)(C(=O)O)CC[C@]5(C)CC[C@@]4(C)[C@]3(C)CC[C@@H]12 [Cbx, carbenoxolone, reference compound] | – | – | – | LY dye spread (number of LY-positive cells) as percentage of untreated control [1]: 16.2 ± 1.1%
2 | CC(C)C[C@H](NC(=O)[C@H](Cc1ccccc1)NC(=O)[C@H](CS)NC(=O)[C@H](CC(=O)O)NC(=O)[C@@H](N)C(C)C)C(=O)N[C@@H](CO)C(=O)N[C@@H](CCCNC(=N)N)C(=O)N1CCC[C@H]1C(=O)N[C@H](C(=O)N[C@@H](CCC(=O)O)C(=O)N[C@H](CCCCN)C(=O)N[C@H](C(=O)O)[C@@H](C)O)[C@@H](C)O [Peptide 9, H2N-VDCFLSRPTEkT-CO2H] (H-VDCFLSRPTE[dK]T-OH) | not statistically different from peptide5 | – | – | LY dye spread (number of LY-positive cells) as percentage of untreated control [1]: 74.7 ± 10.4%
3 | CC(C)C[C@H](NC(=O)[C@H](Cc1ccccc1)NC(=O)[C@H](CS)NC(=O)[C@H](CC(=O)O)NC(=O)[C@@H](N)C(C)C)C(=O)N[C@@H](CO)C(=O)N[C@H](CCCNC(=N)N)C(=O)N1CCC[C@H]1C(=O)N[C@H](C(=O)N[C@@H](CCC(=O)O)C(=O)N[C@@H](CCCCN)C(=O)N[C@H](C(=O)O)[C@@H](C)O)[C@@H](C)O [Peptide 10, H2N-VDCFLSrPTEKT-CO2H] (H-VDCFLS[dR]PTEKT-OH) | significantly increased compared to peptide5 (1) | complete lack of activity | significantly increased compared to peptide5 (1) | LY dye spread / gap junction inhibition compared to control (result in words) [1]: did not reduce the degree of dye spread compared to control
4 | CC(C)C[C@@H]1NC(=O)[C@H](Cc2ccccc2)NC(=O)[C@H](CS)NC(=O)[C@H](CC(=O)O)NC(=O)[C@H](C(C)C)NC(=O)[C@@H](N)CC=CC[C@@H](C(=O)O)NC(=O)[C@H]([C@@H](C)O)NC(=O)[C@H](CCCCN)NC(=O)[C@H](CCC(=O)O)NC(=O)[C@H]([C@@H](C)O)NC(=O)[C@@H]2CCCN2C(=O)[C@H](CCCNC(=N)N)NC(=O)[C@H](CO)NC1=O [Peptide 39] (H-[AllylGly]VDCFLSRPTEKT[AllylGly]-OH; staple 1-14) | – | – | – | stability in human serum (result in words) [2]: good stability over 48 h; also recorded: the most stable in human serum
5 | CC(C)C[C@@H]1NC(=O)[C@H](Cc2ccccc2)NC(=O)[C@H](CS)NC(=O)[C@H](CC(=O)O)NC(=O)[C@H](C(C)C)NC(=O)[C@@H](N)CC=CC[C@@H](C(=O)N[C@H](C(=O)O)[C@@H](C)O)NC(=O)[C@H](CCC(=O)O)NC(=O)[C@H]([C@@H](C)O)NC(=O)[C@@H]2CCCN2C(=O)[C@H](CCCNC(=N)N)NC(=O)[C@H](CO)NC1=O [Peptide 42] (H-[AllylGly]VDCFLSRPTE[AllylGly]T-OH; staple 1-12) | – | – | – | stability in human serum (result in words) [2]: extremely resistant to enzymatic degradation; also recorded: the most stable in human serum; remaining at 48 h, 200 µM ([2]; human, serum): ~90%
6 | (CH 3 ) 2 CH 2 CH 2 OCO-NH-VDCFLSRPTEKT-CO2H (isopentyloxycarbonyl-VDCFLSRPTEKT-OH) [Peptide 3] | – | – | equaling the efficacy of peptide5 (1) | ATP release over untreated HAIR controls (Cx43 hemichannel): 52.6 ± 1.3%
7 | CH 3 CH 2 CH 2 CO-NH-VDCFLSRPTEKT-CO2H (Butyryl-VDCFLSRPTEKT-OH) [Peptide 5] | – | – | equaling the efficacy of peptide5 (1) | ATP release over untreated HAIR controls (Cx43 hemichannel): 57.3 ± 12.4%
8 | CH 3 CH 2 CH 2 CO-NH-VDCFLSRPTEKT-CONH 2 (Butyryl-VDCFLSRPTEKT-NH2) [Peptide 14] | significantly increased dye spread relative to peptide5 (1) | – | – | –
9 | CH 3 CH 2 OCO-NH-VDCFLSRPTEKT-CO2H (Ethoxycarbonyl-VDCFLSRPTEKT-OH) [Peptide 2] | significantly increased dye spread relative to peptide5 (1) | did not reduce ATP release compared to HAIR control | – | –
10 | CH 3 CH 2 OCO-NH-VDCFLSRPTEKT-CONH 2 (Ethoxycarbonyl-VDCFLSRPTEKT-NH2) [Peptide 11] | significantly increased dye spread relative to peptide5 (1) | – | – | –
11 | H2N-VDCFLSRPTEKT-CH 2 OH (H-VDCFLSRPTEKT-CH2OH) [Peptide 15] | significantly increased dye spread relative to peptide5 (1) | – | – | –
12 | N 3 -VDCFLSRPTEKT-CO2H (N3-VDCFLSRPTEKT-OH) [Peptide 6] | significantly increased dye spread relative to peptide5 (1) | complete lack of activity; also recorded: did not reduce ATP release compared to HAIR control | significantly increased compared to peptide5 (1) | –
13 | PhCO-NH-VDCFLSRPTEKT-CO2H (Bz-VDCFLSRPTEKT-OH) [Peptide 4] | significantly increased dye spread relative to peptide5 (1) | did not reduce ATP release compared to HAIR control | – | –
